On the set-up of data set [1]: AUCR: unit not given beside the values. Conditions: in vivo.
A short description of the next data set: clinical. The conditions noted are these: female, human, in vivo; for AUC(0-inf): AUC0-inf; for Tmax: Tmax (Median); for half-life: t1/2.
Data set [2] in a line: in vivo. The conditions noted are these: female, Sprague Dawley, rat, sc.
Procedure: On day 14 of dosing approximately 3 mL of blood was collected 15 minutes post dose. The blood was immediately transferred to a serum separator tube that contained 60 μL of a 2.5 mg/mL aprotinin (Sigma) solution. The blood was kept at room temperature for approximately 45 minutes to allow it to clot. Once clotted, the blood was centrifuged at 2500 rpm for 10 minutes. Serum was stored at −80° C.
Data set [3] is described as follows: in vivo. The conditions noted are these: rat, sc, 20 ug/kg.

The results in this text go back to patent US20210052705A1, “METHOD OF DRUG […] FOR PTH, PTHrP AND RELATED PEPTIDES” (Radius Health, Inc., priority 2011, published 2021).

Where two headings read alike, the source gives them in different places.

Procedure for clinical: This study was conducted at 1 study site and consisted of 3 study periods. […] Application sites were to be either periumbilical or upper thigh regions each with 2 wear times of 10 seconds and 15 minutes. […] Application sites were to be either periumbilical with 10 second and 15 minute wear times or upper thigh regions with a 15 minute wear time. […] Application times were to included 30 seconds, 1, 5, 15, 60 minutes, and 24 hours. New subjects were to be enrolled in each study period.

In data set [1] (100 ug), `CC[C@H](C)[C@H](NC(=O)[C@H](CO)NC(=O)[C@H](CCCCN)NC(=O)CNC(=O)[C@H](CCCCN)NC(=O)[C@H](CC(=O)O)NC(=O)[C@H](Cc1cnc[nH]1)NC(=O)[C@H](CC(C)C)NC(=O)[C@H](CC(C)C)NC(=O)[C@H](CCC(N)=O)NC(=O)[C@H](Cc1cnc[nH]1)NC(=O)[C@H](CCC(=O)O)NC(=O)[C@H](CO)NC(=O)[C@@H](NC(=O)[C@H](C)N)C(C)C)C(=O)N[C@@H](CCC(N)=O)C(=O)N[C@@H](CC(=O)O)C(=O)N[C@@H](CC(C)C)C(=O)N[C@@H](CCCNC(=N)N)C(=O)N[C@@H](CCCNC(=N)N)C(=O)N[C@@H](CCCNC(=N)N)C(=O)N[C@@H](CCC(=O)O)C(=O)N[C@@H](CC(C)C)C(=O)N[C@@H](CC(C)C)C(=O)N[C@@H](CCC(=O)O)C(=O)N[C@@H](CCCCN)C(=O)N[C@@H](CC(C)C)C(=O)N[C@@H](CC(C)C)C(=O)NC(C)(C)C(=O)N[C@@H](CCCCN)C(=O)N[C@@H](CC(C)C)C(=O)N[C@@H](Cc1cnc[nH]1)C(=O)N[C@H](C(=O)N[C@@H](C)C(N)=O)[C@@H](C)O` had an AUC0-inf/dose of 1.77 ± 0.869 pg·h/mL/µg, an AUC0-tau/dose of 1.77 ± 0.868 pg·h/mL/µg, an AUCR of 0.898 ± 0.0169 and an apparent clearance CL/F of 666.2 ± 284.4 L/h. For the same compound, in data set [1] (sc), the AUC0-inf/dose was 7.92 ± 2.83 pg·h/mL/µg; the AUC0-tau/dose came to 7.91 ± 2.83 pg·h/mL/µg; the “Mean Dose Normalized AUC0-inf, SC Dose” value is 7.92. Further, in the data set “clinical” (100 ug), the total exposure AUC(0-inf) was 0.177 ± 0.0869 ng·h/mL, the time to peak (Tmax) came out at 12.1 min, the Vd/F is 366 ± 128 L and the half-life is 24.1 ± 7.56 min. In “clinical” (100 ug, AUC0-t), this compound showed an AUC(0-t) of 0.154 ± 0.0693 ng·h/mL. This compound also returned an AUC in the data set “clinical” (100 ug, AUC0-tau) of 0.177 ± 0.0868 ng·h/mL. Moreover, the concentration in “clinical” (100 ug, Cmax) peaked (Cmax) at 0.317 ± 0.0806 ng/mL. For the same compound, in “clinical” (150 ug), the AUC(0-inf) amounted to 0.269 ± 0.265 ng·h/mL, the Tmax was found to be 9.84 min and the half-life is 34.1 ± 28.3 min. Moreover, in the data set “clinical”, the time to peak (Tmax) was 7.8 min, the Vd/F came out at 491 ± 208 L and the half-life was 28 ± 25 min. Further, in the data set “clinical” (sc), the apparent clearance CL/F is 2340 mL/min, the Tmax worked out at 25.3 min, the Vd/F turned out to be 197 ± 86.2 L and the half-life is 58.2 ± 11.1 min. In addition, in the data set “clinical” (topical or ocular, 100 ug), the CL/F was 6710 mL/min.

In turn, `CC[C@H](C)[C@H](NC(=O)[C@H](CO)NC(=O)[C@H](CCCCN)NC(=O)CNC(=O)[C@H](CCCCN)NC(=O)[C@H](CC(=O)O)NC(=O)[C@H](Cc1cnc[nH]1)NC(=O)[C@H](CC(C)C)NC(=O)[C@H](CC(C)C)NC(=O)[C@H](CCC(N)=O)NC(=O)[C@H](Cc1cnc[nH]1)NC(=O)[C@H](CCC(=O)O)NC(=O)[C@H](CO)NC(=O)[C@@H](NC(=O)[C@H](C)N)C(C)C)C(=O)N[C@@H](CCC(N)=O)C(=O)N[C@@H](CC(=O)O)C(=O)N[C@@H](CC(C)C)C(=O)N[C@@H](CCCNC(=N)N)C(=O)N[C@@H](CCCNC(=N)N)C(=O)N[C@@H](CCCNC(=N)N)C(=O)N[C@@H](CCC(=O)O)C(=O)N[C@@H](CC(C)C)C(=O)N[C@@H](CC(C)C)C(=O)N[C@@H](CCC(=O)O)C(=O)N[C@@H](CCCCN)C(=O)N[C@@H](CC(C)C)C(=O)N[C@@H](CC(C)C)C(=O)NC(C)(C)C(=O)N[C@@H](CCCCN)C(=O)N[C@@H](CC(C)C)C(=O)N[C@@H](Cc1cnc[nH]1)C(=O)N[C@H](C(=O)N[C@@H](C)C(N)=O)[C@@H](C)O` [reference SC] came in with a level at 0.25 h in “in vivo [2]” of 0.0108 ± 0.0036 ng/mL. This compound came in with a peak concentration (Cmax) in the data set “in vivo [3]” (Cmax) of 8.9 ng/mL. The time to peak (Tmax) in “in vivo [3]” (Tmax) is 10 min. Also, the half-life in the data set “in vivo [3]” (t1/2) worked out at 31 min.

What is called CL/F is the apparent clearance, not corrected for the fraction that reaches the circulation. What is called AUC(0-inf) is total exposure, with the tail of the curve extrapolated. The AUC(0-t) is the area under the concentration-time curve up to a stated or last time point. As usually defined, the AUC is the area under the concentration-time curve, a measure of exposure. In general, Cmax refers to the maximum level reached in the sampled fluid or tissue. As a reminder, the Tmax is the time at which the peak concentration occurs. What is called Vd/F is the volume of distribution divided by bioavailability. The term half-life denotes the time in which the quantity being followed falls by half.
